Experimental data from patent US20240277744A1, “TREATMENT OF CHEMORESISTANT CANCER CELLS” (Cornell University, priority 2023, published 2024).

Assays:
SW1990GR cells [1] = experiment: Annexin V/DAPI apoptosis by flow cytometry; assay type: cell-based; conditions: 100 nM or 200 nM CYM, one day; TRA-1-81+ and TRA-1-81− subpopulations
Experimental: (§1) Flow cytometry. TRA-1-60 PerCP-efluor710 (eBioscience, 1:50) and TRA-1-81 PE (eBioscience, 1:100) were used. Cells were blocked with 5% FBS plus mouse IgM isotype control antibody (eBioscience, 1:100) at room temperature for 15 min, then stained on ice for 30 min. Stained cells were resuspended in PBS containing 300 nM DAPI and proceeded to analysis or sorting. Cell apoptosis was analyzed with FITC-AnnexinV labeling reagent (BD). Flow cytometry analysis was carried out on BD FACS Calibur with FlowJo 9.8 software. Sorting was performed with FACSVantage SE (Becton Dickinson).

SW1990 cells [2] = experiment: Growth curve / proliferation assay; assay type: cell-based; conditions: SW1990, 50 nM CYM
Experimental: (§2) To quantify growth, Cells were seeded into 96-well plates (2000/well). After overnight incubation, medium with indicated drug was refreshed. Cell proliferation was quantified every 2 days using CellTiter 96® AQueous Non-Radioactive Cell Proliferation Assay (Promega).

SW1990GR cells [3] = experiment: Growth curve / proliferation assay; assay type: cell-based; conditions: 25 nM CYM
Experimental: as §2

SW1990GR cells [4] = experiment: Cell viability (DAPI nuclei count, high content imaging); assay type: cell-based; conditions: 72 h, CYM 0-500 nM, 3 days, read-out: IC50, viability
Experimental: To establish GR cell lines, cells were first cultured with 10 nM GEM till cell growth became stable. […] Once cell growth became stable in 100 nM GEM, cells were expanded in 100 nM GEM and used in assays.
(§3) Cell viability, colony formation, sphere formation and growth curve. To quantify viability, cells were plated into 96-well plates (6000/well) one night before treatment. […] After fixation, cell nuclei were stained with DAPI (Invitrogen). Plates were analyzed using MetaXpress High Content Image Acquisition and Analysis System (Molecular Devices).

[5] = test system: UGT1A10 transcript in SW1990GR cells; experiment: qRT-PCR of UGT1A10 expression; assay type: cell-based
Experimental: (§4) qRT-PCR. Reverse transcription reaction was prepared with 0.5-2 μg total RNA using High Capacity cDNA Reverse Transcription Kit (Applied Biosystems). Products were diluted 10 folds with DNase&RNase free water as template. qPCR reactions were prepared with 2× LightCycler 480 SYBR Green I Master reagent (Roche) and proceeded in LightCycler 480 II (Roche) with software LightCycler 480 SW1.5.1 for signal acquisition and processing. ACTB was employed as internal reference. Primers were listed below: […]

[6] = test system: UGT1A10 transcript in SW1990 cells; experiment: qRT-PCR of UGT1A10 expression; assay type: cell-based; conditions: SW1990, CYM treatment
Experimental: as §4

HT-29 cells = experiment: Cell viability with GEM and CYM; assay type: cell-based; conditions: HT-29, 50 nM GEM and 25 nM CYM, 5 days
Experimental: (§5) Cell viability, colony formation, sphere formation and growth curve. To quantify viability, cells were plated into 96-well plates (6000/well) one night before treatment. Drugs were then added in indicated dose for 5 days. After fixation, cell nuclei were stained with DAPI (Invitrogen). Plates were analyzed using MetaXpress High Content Image Acquisition and Analysis System (Molecular Devices).

HPAF-II cells = experiment: Cell viability with GEM and CYM; assay type: cell-based; conditions: 50 nM GEM and 25 nM CYM, 5 days
Experimental: as §5

SW1990 cells [7] = experiment: Cell viability (DAPI nuclei count, high content imaging); assay type: cell-based; conditions: Homo sapiens, SW1990, 72 h, read-out: IC50, viability
Experimental: as §3

[8] = test system: UGT1A10 overexpressing SW1990 cells; experiment: Cell viability of UGT1A10 overexpressing cells; assay type: cell-based; conditions: 50 nM CYM, control vs UGT1A10 overexpressing SW1990
Text: To determine whether UTG1A10 is sufficient to induce TRA-1-81 expression and chemoresistance, UGT1A10 was overexpressed ectopically in SW1990 cells (UGT-OE). Cells expressing firefly luciferase were used as control (CTRL). […] Indeed, the viability of UGT-OE cells is higher than control cells following GEM treatment (FIG. 4G). […] In summary, UGT1A10 is both required and sufficient to enhance TRA-1-60 and TRA-1-81 expression and chemoresistance.
LentiLuc-blast and LentiUGT1A10-blast plasmid were generated based on LentiCas9-blast vector (Addgene, 52926). Luciferasec DNA was cloned from pGL3-promoter plasmid (Promega) with PCR amplification and inserted between AgeI and BamHI sites. UGT1A10 cDNA was PCR amplified from plasmid purchased from Dharmacon (MHS6278-202756114) and inserted between XbaI and BamHI sites. Primers were used as below: […]
as §5

hESCs = conditions: cited from earlier work
TRA-1-81+ SW1990GR cells = experiment: Flow cytometry of TRA-1-81+ cells; assay type: cell-based
Experimental: as §1

TRA-1-81+ SW1990 cells = experiment: Flow cytometry of TRA-1-81+ cells; assay type: cell-based
Experimental: as §1

HCT116 cell line = experiment: Flow cytometry of TRA-1-81+ cells; assay type: cell-based; conditions: HCT-116, 25 nM CYM, 5 days
Experimental: as §1

DU145 cell line = experiment: Flow cytometry of TRA-1-81+ cells; assay type: cell-based; conditions: DU145, 25 nM CYM, 5 days
Experimental: as §1

CO[C@H]1C[C@H](O[C@H]2CC[C@]3(C=O)[C@H]4CC[C@]5(C)[C@@H](C6=CC(=O)OC6)CC[C@]5(O)[C@@H]4CC[C@]3(O)C2)O[C@H](C)[C@H]1O [CYM, Cymarin]
percentage of Annexin V+/DAPI− (early) and Annexin V+/DAPI+ (late) apoptotic cells (SW1990GR cells [1]): increased | proliferation (SW1990 cells [2]): significantly decreased the proliferation | proliferation (SW1990GR cells [3]): sufficient to block the proliferation | IC50 (SW1990GR cells [4]): 40.8 ± 3.1 nM | expression of UGT1A10 in TRA-1-81+ and TRA-1-81− subpopulations ([5]; 25 nM CYM): significantly inhibits | UGT1A10 transcript levels ([5]; CYM treatment): decreased | UGT1A10 transcript levels [6]: decreased | survival of GEM-resistant cells (HT-29 cells): significantly decreased the survival | survival of GEM-resistant cells (HPAF-II cells): significantly decreased the survival | IC50 (SW1990 cells [7]): 33.8 ± 2.6 nM | effect of ectopic UGT1A10 expression on Cymarin anti-chemoresistant activity [8]: partially rescues | effect on hESCs in a previous screen (hESCs): differentiation inducer of hESCs | TRA-1-81+ cells in time course (TRA-1-81+ SW1990GR cells; 25 nM CYM): decrease of TRA-1-81^+ cells over time | IC50 (TRA-1-81+ SW1990GR cells; flow cytometry, read-out: IC50, decrease of percentage of TRA-1-81+ cells): 5.1 ± 1.5 nM | IC50 (TRA-1-81+ SW1990 cells; Homo sapiens, SW1990, read-out: IC50, repression of TRA-1-81+ cells): 6.3 ± 2.2 nM | TRA-1-81+ cells in time course (TRA-1-81+ SW1990 cells; SW1990, 25 nM CYM): decrease of TRA-1-81^+ cells over time | percentage of TRA-1-81+ cells with or without acute GEM (TRA-1-81+ SW1990 cells; SW1990, 5 days, 25 nM CYM or 100 nM GEM plus 25 nM CYM): decreased the percentage of TRA-1-81^+ cells effectively regardless of GEM | percentage of TRA-1-81+ cells (HCT116 cell line): decreased | percentage of TRA-1-81+ cells (DU145 cell line): decreased
